In brackets after ≈: the same amount, converted by molar mass.
Legend:
[1] = system: Mycobacterium tuberculosis; test: Antimycobacterial activity against active form of Mycobacterium tuberculosis H37Rv measured after 7 days by alamar blue assay; assay type: functional; settings: 168 h
[2] = system: Mycobacterium tuberculosis; test: Antimycobacterial activity against nutrient starved dormant form of Mycobacterium tuberculosis H37Rv assessed as log reduction in bacterial count at 10 ug/ml measured after 7 days by […] relative to control; assay type: functional
[3] = molecular target: T1, L-lysine-epsilon aminotransferase (Mycobacterium tuberculosis, UniProt P9WQ77); test: Inhibition of Mycobacterium tuberculosis LAT using L-lysine and alpha-ketoglutaric acid as substrate by spectrophotometric analysis
T1 sequence (P9WQ77 whole entry): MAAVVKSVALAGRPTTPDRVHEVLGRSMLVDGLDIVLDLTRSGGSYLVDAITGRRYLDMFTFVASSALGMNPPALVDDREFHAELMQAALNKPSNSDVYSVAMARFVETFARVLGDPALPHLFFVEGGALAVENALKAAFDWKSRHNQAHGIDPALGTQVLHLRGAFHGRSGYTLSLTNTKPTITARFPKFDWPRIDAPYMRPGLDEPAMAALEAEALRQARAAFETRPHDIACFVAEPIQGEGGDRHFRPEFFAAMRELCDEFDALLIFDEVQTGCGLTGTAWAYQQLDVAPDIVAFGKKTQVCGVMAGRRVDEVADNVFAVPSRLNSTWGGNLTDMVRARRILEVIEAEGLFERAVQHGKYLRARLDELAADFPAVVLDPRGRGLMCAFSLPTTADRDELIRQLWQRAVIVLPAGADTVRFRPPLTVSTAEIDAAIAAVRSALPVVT

RAW264.7 = test: Cytotoxicity against mouse RAW264.7 cells assessed as reduction in cell viability at 50 ug/ml after 48 hrs by MTT assay; assay type: cell-based; settings: raw264.7, 48 h
[4] = system: Mycobacterium tuberculosis; test: Antimycobacterial activity against Mycobacterium tuberculosis H37Rv measured after 6 days by resazurin assay; assay type: functional; settings: 144 h

Structure (SMILES) | MIC [1] | Activity (RAW264.7) | also measured
O=S(=O)(c1ccc(F)cc1)N1CCC2(CC1)OCCc1ccsc12 | 34 µM (≈ 12.5 µg/mL) |  | 
O=C(c1ccc(F)cc1F)N1CCC2(CC1)OCCc1ccsc12 | 8.94 µM (≈ 3.12 µg/mL) | 34.06% | log(activity) [2]: 2.7; IC50 [3]: 3.48 µM
Fc1ccc(CN2CCC3(CC2)OCCc2ccsc23)c(F)c1 | 37.3 µM (≈ 12.5 µg/mL) |  | 
CC[C@@H](CO)NCCN[C@@H](CC)CO [ETHAMBUTOL] | 9.84 µM (≈ 2.01 µg/mL) |  | 
O=S(=O)(c1ccc(Cl)cc1)N1CCC2(CC1)OCCc1ccsc12 | 65.1 µM (≈ 25 µg/mL) |  | 
c1cc2c(s1)CCOC21CCN(Cc2ccc3c(c2)OCCO3)CC1 |  |  | MIC [4]: 0.38 µM (≈ 0.136 µg/mL)
O=S(=O)(c1ccccc1)N1CCC2(CC1)OCCc1ccsc12 | 71.5 µM (≈ 25 µg/mL) |  | 
COc1ccc(S(=O)(=O)N2CCC3(CC2)OCCc2ccsc23)cc1 | 8.23 µM (≈ 3.12 µg/mL) | 12.32% | log(activity) [2]: 2.8; IC50 [3]: 1.04 µM
NNC(=O)c1ccncc1 [ISONIAZID] | 0.66 µM (≈ 0.0905 µg/mL) |  | log(activity) [2]: 1.7
O=S(=O)(c1ccc(F)cc1F)N1CCC2(CC1)OCCc1ccsc12 | 16.2 µM (≈ 6.25 µg/mL) | 31.08% | 
Fc1ccc(CN2CCC3(CC2)OCCc2ccsc23)cc1 | 19.7 µM (≈ 6.25 µg/mL) | 21.67% | 
Clc1ccc(CN2CCC3(CC2)OCCc2ccsc23)cc1 | 9.35 µM (≈ 3.12 µg/mL) | 26.54% | log(activity) [2]: 2.4; IC50 [3]: 6.83 µM
c1ccc(CN2CCC3(CC2)OCCc2ccsc23)cc1 | 83.5 µM (≈ 25 µg/mL) |  | 
CO[C@H]1/C=C/O[C@@]2(C)Oc3c(C)c(O)c4c(O)c(c(/C=N/N5CCN(C)CC5)c(O)c4c3C2=O)NC(=O)/C(C)=C\C=C\[C@H](C)[C@H](O)[C@@H](C)[C@@H](O)[C@@H](C)[C@H](OC(C)=O)[C@@H]1C [RIFAMPIN] |  |  | log(activity) [2]: 2
COc1ccc(C(=O)N2CCC3(CC2)OCCc2ccsc23)cc1 | 9.09 µM (≈ 3.12 µg/mL) | 14.59% | 
O=C(c1ccc(Cl)cc1Cl)N1CCC2(CC1)OCCc1ccsc12 | 32.7 µM (≈ 12.5 µg/mL) |  | 
Cc1ccc(C(=O)N2CCC3(CC2)OCCc2ccsc23)cc1 | 19.1 µM (≈ 6.25 µg/mL) | 23.16% | 
O=C(c1ccc(F)cc1)N1CCC2(CC1)OCCc1ccsc12 | 18.9 µM (≈ 6.25 µg/mL) | 18.98% | 
O=S(=O)(c1ccc(Cl)cc1Cl)N1CCC2(CC1)OCCc1ccsc12 | 29.9 µM (≈ 12.5 µg/mL) |  | 
O=C(c1ccc(Cl)cc1)N1CCC2(CC1)OCCc1ccsc12 | 71.9 µM (≈ 25 µg/mL) |  | 
Clc1ccc(CN2CCC3(CC2)OCCc2ccsc23)c(Cl)c1 | 33.9 µM (≈ 12.5 µg/mL) |  | 
COc1ccc(CN2CCC3(CC2)OCCc2ccsc23)cc1 | 23.1 µM (≈ 7.62 µg/mL) |  | 
Cc1ccc(S(=O)(=O)N2CCC3(CC2)OCCc2ccsc23)cc1 | 8.59 µM (≈ 3.12 µg/mL) | 22.16% | 
CC1COc2c(N3CCN(C)CC3)c(F)cc3c(=O)c(C(=O)O)cn1c23 (configuration not stated) [OFLOXACIN] | 2.16 µM (≈ 0.781 µg/mL) |  | 
Cc1ccc(CN2CCC3(CC2)OCCc2ccsc23)cc1 | 79.8 µM (≈ 25 µg/mL) |  | 
O=C(c1ccccc1)N1CCC2(CC1)OCCc1ccsc12 | 79.8 µM (≈ 25 µg/mL) |  | 
